Data from patent US9265845B2, “Imaging methods using engineered integrin binding peptides” (The Board of Trustees of the Leland Stanford Junior …, priority 2006, dated 2016).
“Also recorded” adds a separate entry of the source. Like-named read-outs stand apart in the source and are kept apart here. Positions of bridges follow the written chain, without caps; N, C: chain ends. Residues, ends and D or L forms follow the SMILES beside them. No end group written: not given here.

Experiments:
αvβ5 integrin = αvβ5 integrin (Homo sapiens, UniProt P06756+P18084); experiment: Competition of 125I-echistatin to detergent-solubilized plate-coated integrin; format: binding; conditions: 0.06 nM 125I echistatin, 5 nM and 50 nM peptide
Procedure, shortened: (§1)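 Detergent-solubilized integrins were coated on plates. Displacement of 0.06 nM 125I-echistatin by unlabeled peptide was measured at 5 nM and 50 nM. Experiments were run in triplicate.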

αiibβ3 integrin = αiibβ3 integrin (Homo sapiens, UniProt P05106+P08514); experiment: as above; format: binding; conditions: 0.06 nM 125I echistatin, 5 nM and 50 nM peptide
Procedure, shortened: as §1

α5β1 integrin = α5β1 integrin (Homo sapiens, UniProt P05556+P08648); experiment: as above; format: binding; conditions: 0.06 nM 125I echistatin, 5 nM and 50 nM peptide
Procedure, shortened: as §1

αvβ3 integrin [1] = biological target: T1, αvβ3 integrin (Homo sapiens, UniProt P05106+P06756); experiment: as above; format: binding; conditions: 0.06 nM 125I echistatin, 5 nM and 50 nM peptide
Procedure, shortened: as §1

[2] = biological target: T2, αvβ3 integrin on U87MG glioblastoma cells (Homo sapiens, UniProt P05106+P06756); experiment: 125I-echistatin competition binding to U87MG glioblastoma cells; conditions: read-out: IC50, competition with 125I-echistatin, U87MG tumor cells
T2 construct: host or cells: U87MG glioblastoma cells
Method: FIG. 9 is a graph showing normalized competition plotted against peptide concentration in an integrin-binding assay on U87MG glioblastoma cells.
U87MG glioblastoma cells, which express ˜10^5 αvβ3 integrin receptors per cell, were used for these studies. […] An EETI-based polypeptide with a scrambled RDG amino acid sequence, designated FN-RDG, served as a negative control.
Half-maximal inhibitory concentrations (IC50) […] of data measured on at least three separate days. Data for unlabeled and Cy5.5-labeled peptides are shown. Site-specific labeling of RGD miniproteins with a near-infrared optical imaging probe: The free N-terminal amine of our polypeptides was used for site-specific attachment of Cy5.5, a near infrared imaging probe.
An αvβ3 integrin receptor binding assay is performed to determine the relative affinities of the mock-PET tracers compared to their unlabeled polypeptides. Briefly, 2×10^5 U87MG glioblastoma cells are incubated with 0.06 nM ^125I-echistatin in integrin binding buffer (25 mM Tris-HCl, pH 7.4, 150 mM NaCl2 1 mM CaCl2 1 mM MgCl2, 1 mM MnCl2, 0.1% BSA), in the presence of increasing concentrations of mock-PET tracers at room temperature. After incubation for 3 h, cells are pelleted by centrifugation at 1500 RPM and washed three times in binding buffer to remove unbound ligands. The radioactivity remaining in the cell pellet is measured by γ counting. IC50 values are determined by plotting the % competition and using a four-point binding equation (Kaleidagraph) to fit the data.

αvβ3 integrin [3] = biological target: T1, αvβ3 integrin; conditions: cited from earlier work
U87MG glioblastoma cells [4] = experiment: Blocking of U87MG cell adhesion to fibronectin-coated plates; format: cell-based
Excerpt: (§2) The present engineered peptides may be used in a variety of ways. If the peptides are attached to a surface, they may be used to attract/recruit cells to grow on the surface. For example, the present peptides may be applied to prosthetic devices, implants, bone grafts, and the like to promote tissue growth and healing at the site. They may be attached to culture dishes and promote attachment and differentiation of cells in culture. In addition, the present engineered peptides may be used to modulate cell binding to selected integrins such as α5β1, αvβ3 and αvβ5, particularly αvβ3, by adding the peptides to a cell culture to prevent cells expressing these integrins from adhering to a substrate. […] Also, the present 2.5F, 2.5D and 1.5B peptides were tested for blocking adhesion of U87MG glioblastoma cells to fibronectin-coated plates.
(§3) In another experiment, the ability of engineered knottin peptides to block U87MG cell adhesion to vitronectin- and fibronectin-coated microtiter plates. Vitronectin is a natural ligand for several integrins, including αvβ3 and αvβ5. The RGD-containing peptides were all able to inhibit U87MG cell adhesion to vitronectin-coated plates in a dose-responsive manner. […] Fibronectin also binds to several integrins, (including αvβ3 and α5β1), but the α5β1 integrin receptor is generally selective for fibronectin.

U87MG glioblastoma cells [5] = experiment: Blocking of U87MG cell adhesion to vitronectin-coated plates; format: cell-based; conditions: vitronectin-coated wells
Excerpt: as §2, §3
Whether the engineered AgRP peptides could block vitronectin-mediated adhesion to the U87MG cells was tested using an analogous assay. […] The AgRP peptides may not effectively block U87MG adhesion compared to the K562-αvβ3 cells because the αvβ5 integrins co-expressed on the surface of the U87MG cells could also contribute to vitronectin-mediated adhesion and compensate for the loss of αvβ3 integrin function.

K562-αvβ3 cells = experiment: Inhibition of vitronectin-mediated adhesion of K562-αvβ3 cells; format: cell-based; conditions: vitronectin-coated microtiter wells
Method: To determine whether the engineered AgRP peptides could inhibit cell adhesion mediated by vitronectin, the primary ligand for αvβ3 integrin, K562-αvβ3 cells were incubated with varying concentrations of peptides in microtiter wells coated with vitronectin to determine the ability of the peptides to inhibit cell adhesion. […] This difference may be a result of multivalent interactions between the cell surface αvβ3 integrins and the immobilized vitronectin, thereby making it more difficult for the peptides to compete.

[6] = system: subcutaneous U87MG glioblastoma tumors; experiment: In vivo optical imaging of Cy5.5-labeled peptides in U87MG xenograft mice; parameters: species or system mouse
Method: FIG. 8A is a series of 4 pictures showing in vivo imaging of Cy5.5-labeled polypeptides in mice. 1.5 nmol of Cy5.5-labeled EETI-RGD peptide 2.5D or other indicated peptide was injected by tail vein into U87MG glioblastoma xenograft mouse models and imaged at various time points post injection. Arrows indicate the position of tumors. […] Cy5.5-labeled FN-RDG negative control (bottom line, open squares) indicates background levels.
Whole-body imaging of subcutaneous mouse xenografts were imaged with the IVIS 200 system (Xenogen) and quantified with Living Image 2.50.1 software.

U87MG tumor = experiment: MicroPET imaging and biodistribution of radiolabeled peptides in U87MG tumor-bearing mice; format: in vivo, mouse; conditions: radiolabeled peptides, U87MG tumor-bearing mice
Procedure, shortened: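 Female athymic nude mice carrying subcutaneous U87MG xenografts (8–10 mm) received ~100 μCi 64Cu-DOTA peptides i.v. (tail vein); static microPET scans under 2% isoflurane. %ID/g obtained from ROIs on decay-corrected images assuming 1 g/mL density, without attenuation correction. Biodistribution measured by γ-counting of excised tissues, reported as %ID/g mean±SD.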

αvβ3 integrin [7] = biological target: T1, αvβ3 integrin; experiment: Yeast-displayed peptide binding to soluble αvβ3 integrin, flow cytometry; conditions: yeast-displayed peptides
Method: The yeast display construct shown in FIG. 1A has the general orientation: Aga2-HA-engineered knottin—c-myc epitope, with the c-myc epitope at the carboxy terminus of the peptide. […] Bound integrin is detected with an anti-integrin antibody, labeled with FITC.
Below is a typical protocol to label a yeast library samples for sorting by flow cytometry (FACS): • 1. Want 2×10^6 cells, OD600 of […] • 2. Add 1 mL PBS/BSA (phosphate buffered saline containing 1 mg/mL bovine serum albumin) to wash cells • 3. Spin down cells 3 min at 8000 RPM • 4. Remove supernatant using vacuum • 5. Re-suspend in 40 μL PBS/BSA containing proper amount of integrin (100 nM [2.5 μL of stock αvβ3]; no anti-cmyc at this point) • 6. Incubate for 1.5 h at r.t (w/tumbling) • 7. Add 1:250 dilution of (chick anti-cmyc) to labeling solution • 8. […] Incubate 1 h at 4° C. (w/tumbling) • 10. Keep on ice after this step. • 11. Spin down cells 3 min at 8000 RPM, 4° C. and vacuum supernatant • 12. Repeat wash steps 2-4 • 13. Re-suspend in 40 μL PBS/BSA containing proper amount of secondary labels (secondary labeling is simultaneous) • i. Anti-integrin Ab (FITC conj): 1:25 dilution+Anti-chick (Alexa 555): 1:100 dilution • ii. Positive control: Anti-chick (Alexa 555): 1:100 dilution (for FACS compensation) • iii. Positive control: Anti-chick (Alexa 488): 1:100 dilution (for FACS compensation) • 14. Incubate on ice 30 min and keep in dark (lid on ice bucket) • 15. Spin down cells at 3 min at 8000 RPM, 4° C. and vacuum supernatant • 16. Repeat steps 2-4: Add 1 mL PBS/BSA, pellet cells, vacuum supernatant • 17. Leave pelleted cells on ice until use. Fluorescent Cell Sorting
Commercially available flow cytometers can measure fluorescence emissions at the single-cell level at four or more wavelengths, at a rate of approximately 50,000 cells per second (Ashcroft and Lopez, 2000). Typical flow cytometry data are shown in FIG. 4-7, in which yeast have been labeled with two different color fluorescent probes to measure protein expression levels and bound soluble ligand (in this case integrin receptor). A ‘diagonal’ population of cells results due to variation in protein expression levels on a per cell basis: cells that express more protein will bind more ligand. The equilibrium binding constant (Kd) can be determined by titration of soluble ligand, and the dissociation rate constant (koff) can be measured through competition binding of unlabeled ligand. With yeast, a monodispersity of tethered proteins exists over the cell surface, and soluble ligand are used for binding and testing, such that avidity effects are not observed, unlike other display methods using immobilized ligands. To date, the properties of most proteins expressed on the yeast cell surface mimic what is seen in solution in terms of stability and binding affinity (Bader et al., 2000; Feldhaus et al., 2003; Holler et al., 2000; VanAntwerp and Wittrup, 2000). See, also, Weaver-Feldhaus et al., “Directed evolution for the development of conformation-specific affinity reagents using yeast display,” Protein Engineering Design and Selection Sep. 26, 2005 18(11):527-536.
Cell sorting was carried out on a FACSVantage (BD Biosciences) multiparameter laser flow cytometer and cell sorter. Before sorting, fluorescent staining was carried out as described above, so that analysis of integrin binding and c-myc expression levels were detected, as described above. […]

With “ECESGPCCRNCKFLKEGTICKRARGDDMDDYCNGKTCDCPRNPHKGPAT (disulfide 2-11, 7-32, 8-37, 20-39 (inferred)) [Echistatin, echistatin]” as the compound, how does the “binding to αvβ5 integrin, in words” value (αvβ5 integrin) read?
Its value is “binds strongly; also recorded: bound strongly”.

And the “binding to αiibβ3 integrin, in words” value (αiibβ3 integrin)?
The value was “binds strongly; also recorded: bound strongly”.

What about the “binding to α5β1 integrin, in words” value (α5β1 integrin) of the same compound?
The value was “binds strongly; also recorded: bound strongly”.

And the “binding to αvβ3 integrin, in words” value (αvβ3 integrin [1])?
The value was “binds strongly; also recorded: bound strongly”.

And the IC50 ([2]; Cy5.5-labeled peptides (Cy5.5: Yes))?
The IC50 was 2.6 ± 0.2 nM.

And the IC50 ([2]; unlabeled peptides (Cy5.5: No))?
The IC50 was 4.9 ± 1 nM.

And the Kd (αvβ3 integrin [3])?
Its Kd is 0.3 nM.

And the “blocking of U87MG cell adhesion to fibronectin, in words” value (U87MG glioblastoma cells [4])?
Its value is “blocked adhesion; also recorded: able to block”.

What about the IC50 (U87MG glioblastoma cells [5]) of the same compound?
Its IC50 is 5.8 nM.

And the IC50 (K562-αvβ3 cells)?
Its IC50 is 3.2 ± 2.7 nM.

What does the source list for `CC(C)C[C@@H]1NC(=O)[C@@H]2CSSC[C@@H](C(=O)NCC(=O)O)NC(=O)[C@H](Cc3ccccc3)NC(=O)CNC(=O)[C@H](CC(N)=O)NC(=O)[C@@H]3CCCN3C(=O)CNC(=O)[C@@H]3CSSC[C@H](NC(=O)[C@H](CO)NC(=O)[C@H](CO)NC(=O)[C@H](C)NC(=O)[C@@H]4CCCN4C(=O)[C@H](CO)NC(=O)[C@H](CC(=O)O)NC(=O)CNC(=O)[C@H](CCCNC(=N)N)NC(=O)CNC(=O)[C@H]([C@@H](C)O)NC(=O)[C@H](C(C)C)NC(=O)[C@@H](NC(=O)CN)CSSC[C@H](NC(=O)CNC(=O)[C@H](C)NC1=O)C(=O)N[C@@H](C(C)C)C(=O)N3)C(=O)N[C@@H](CCCCN)C(=O)N[C@@H](CCC(N)=O)C(=O)N[C@@H](CC(=O)O)C(=O)N[C@@H](CO)C(=O)N[C@@H](CC(=O)O)C(=O)N2` [RGD-EETI#3] (H-GCVTGRGDSPASSCKQDSDCLAGCVCGPNGFCG-OH; disulfide 2-24, 14-26, 20-32; N-terminus and C-terminus assumed)?
tumor uptake / imaging signal of Cy5.5-labeled peptide, in words [6]: significantly weaker imaging signals; PET tumor targeting / imaging signal, in words (U87MG tumor): significantly weaker imaging signals; integrin binding compared in words (αvβ3 integrin [7]): binds better than the 10th domain of fibronectin
